Measurements as given in ChEMBL document CHEMBL1133123 (J Med Chem, 2000).

Experiments:
[1] = target: T1, Alpha-2B adrenergic receptor (Homo sapiens, UniProt P18089); test: Binding affinity towards Alpha-2B adrenergic receptor
T1 sequence (P18089 whole entry): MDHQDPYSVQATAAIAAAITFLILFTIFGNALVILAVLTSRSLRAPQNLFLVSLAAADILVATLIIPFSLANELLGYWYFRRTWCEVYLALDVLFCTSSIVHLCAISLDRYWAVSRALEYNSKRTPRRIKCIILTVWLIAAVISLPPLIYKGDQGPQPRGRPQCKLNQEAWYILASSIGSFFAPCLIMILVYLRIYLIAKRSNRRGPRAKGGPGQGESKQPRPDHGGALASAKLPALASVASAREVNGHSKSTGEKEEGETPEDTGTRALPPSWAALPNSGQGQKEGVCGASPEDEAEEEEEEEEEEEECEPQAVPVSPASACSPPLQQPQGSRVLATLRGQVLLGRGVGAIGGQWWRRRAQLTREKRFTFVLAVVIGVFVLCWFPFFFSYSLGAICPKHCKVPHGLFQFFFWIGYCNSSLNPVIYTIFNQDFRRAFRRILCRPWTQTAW

[2] = target: T2, Alpha-2A adrenergic receptor (Homo sapiens, UniProt P08913); test: Binding affinity towards Alpha-2A adrenergic receptor
T2 sequence (P08913 whole entry): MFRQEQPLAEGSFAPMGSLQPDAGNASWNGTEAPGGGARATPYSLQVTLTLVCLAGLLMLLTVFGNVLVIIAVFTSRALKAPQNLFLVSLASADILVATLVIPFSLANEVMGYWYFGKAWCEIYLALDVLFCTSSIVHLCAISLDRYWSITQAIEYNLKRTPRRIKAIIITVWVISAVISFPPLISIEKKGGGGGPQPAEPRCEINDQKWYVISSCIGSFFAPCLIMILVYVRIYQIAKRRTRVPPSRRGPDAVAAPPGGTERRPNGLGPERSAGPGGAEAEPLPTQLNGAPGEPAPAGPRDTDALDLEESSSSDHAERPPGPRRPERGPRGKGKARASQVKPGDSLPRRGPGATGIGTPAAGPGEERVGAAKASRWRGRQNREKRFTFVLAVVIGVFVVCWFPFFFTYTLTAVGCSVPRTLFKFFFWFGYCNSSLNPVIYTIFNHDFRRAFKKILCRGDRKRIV

Rattus norvegicus = organism: Rattus norvegicus; test: Selectivity ratio of alpha1/alpha2d
[3] = target: T3, Alpha-2A adrenergic receptor (Rattus norvegicus, UniProt P22909); test: Binding affinity towards alpha-2D adrenergic receptor
T3 sequence (P22909 whole entry): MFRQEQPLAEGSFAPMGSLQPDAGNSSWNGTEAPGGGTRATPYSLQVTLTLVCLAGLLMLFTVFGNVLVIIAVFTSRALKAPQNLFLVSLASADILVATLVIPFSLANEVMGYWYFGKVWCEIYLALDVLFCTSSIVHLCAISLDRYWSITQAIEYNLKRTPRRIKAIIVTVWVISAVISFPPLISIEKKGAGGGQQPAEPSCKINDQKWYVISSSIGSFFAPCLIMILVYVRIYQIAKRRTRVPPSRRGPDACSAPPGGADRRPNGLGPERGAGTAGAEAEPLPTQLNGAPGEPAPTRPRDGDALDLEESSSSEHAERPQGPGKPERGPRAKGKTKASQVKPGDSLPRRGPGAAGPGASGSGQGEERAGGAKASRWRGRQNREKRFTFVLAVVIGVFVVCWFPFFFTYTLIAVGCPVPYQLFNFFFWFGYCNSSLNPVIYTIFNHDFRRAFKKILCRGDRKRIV

[4] = target: T4, Alpha-2C adrenergic receptor (Homo sapiens, UniProt P18825); test: Binding affinity towards alpha-2C adrenergic receptor
T4 sequence (P18825 whole entry): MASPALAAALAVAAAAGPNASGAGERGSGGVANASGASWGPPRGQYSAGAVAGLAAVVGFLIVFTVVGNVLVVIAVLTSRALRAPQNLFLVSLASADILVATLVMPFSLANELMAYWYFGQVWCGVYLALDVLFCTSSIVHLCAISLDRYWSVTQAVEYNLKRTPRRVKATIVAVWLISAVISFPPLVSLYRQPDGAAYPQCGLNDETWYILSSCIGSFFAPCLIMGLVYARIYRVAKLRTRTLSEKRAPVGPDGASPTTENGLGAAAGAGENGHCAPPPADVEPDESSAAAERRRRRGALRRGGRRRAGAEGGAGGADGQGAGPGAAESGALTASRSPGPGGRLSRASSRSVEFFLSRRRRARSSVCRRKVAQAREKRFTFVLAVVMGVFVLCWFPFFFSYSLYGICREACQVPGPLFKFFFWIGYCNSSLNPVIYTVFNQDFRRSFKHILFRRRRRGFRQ

[5] = target: T5, Adrenergic receptor alpha-1 (Rattus norvegicus, UniProt P15823+P23944+P43140); test: Tested for Binding affinity towards alpha-1 adrenergic receptor; assay type: protein assay
T5 sequence (P15823 whole entry): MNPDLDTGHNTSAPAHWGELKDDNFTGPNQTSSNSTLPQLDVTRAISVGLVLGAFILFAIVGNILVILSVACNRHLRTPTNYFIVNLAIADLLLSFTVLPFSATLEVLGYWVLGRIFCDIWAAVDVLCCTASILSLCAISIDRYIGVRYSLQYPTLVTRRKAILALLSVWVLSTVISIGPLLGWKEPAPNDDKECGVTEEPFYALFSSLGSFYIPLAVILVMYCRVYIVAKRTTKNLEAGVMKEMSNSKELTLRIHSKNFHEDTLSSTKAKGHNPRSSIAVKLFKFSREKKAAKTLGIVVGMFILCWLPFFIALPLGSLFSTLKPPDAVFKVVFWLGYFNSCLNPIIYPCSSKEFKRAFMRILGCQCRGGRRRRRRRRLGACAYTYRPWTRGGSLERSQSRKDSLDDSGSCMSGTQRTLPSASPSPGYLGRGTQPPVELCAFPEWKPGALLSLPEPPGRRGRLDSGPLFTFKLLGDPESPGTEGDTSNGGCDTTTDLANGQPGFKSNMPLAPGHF
T5 sequence (P23944 whole entry): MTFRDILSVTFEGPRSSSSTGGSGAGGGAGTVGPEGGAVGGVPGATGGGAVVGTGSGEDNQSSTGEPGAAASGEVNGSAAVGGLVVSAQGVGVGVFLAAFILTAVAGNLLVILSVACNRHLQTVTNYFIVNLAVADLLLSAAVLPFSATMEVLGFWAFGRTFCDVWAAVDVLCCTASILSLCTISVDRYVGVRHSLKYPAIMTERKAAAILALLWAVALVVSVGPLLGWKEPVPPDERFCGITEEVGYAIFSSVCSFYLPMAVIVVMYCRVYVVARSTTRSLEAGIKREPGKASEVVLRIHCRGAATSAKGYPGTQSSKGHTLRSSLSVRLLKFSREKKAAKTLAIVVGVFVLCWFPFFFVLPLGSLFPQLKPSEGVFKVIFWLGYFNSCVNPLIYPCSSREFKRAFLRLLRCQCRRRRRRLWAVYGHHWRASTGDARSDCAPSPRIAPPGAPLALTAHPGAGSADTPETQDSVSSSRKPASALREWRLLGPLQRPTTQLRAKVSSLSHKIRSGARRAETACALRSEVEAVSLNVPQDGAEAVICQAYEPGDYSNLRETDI
T5 sequence (P43140 whole entry): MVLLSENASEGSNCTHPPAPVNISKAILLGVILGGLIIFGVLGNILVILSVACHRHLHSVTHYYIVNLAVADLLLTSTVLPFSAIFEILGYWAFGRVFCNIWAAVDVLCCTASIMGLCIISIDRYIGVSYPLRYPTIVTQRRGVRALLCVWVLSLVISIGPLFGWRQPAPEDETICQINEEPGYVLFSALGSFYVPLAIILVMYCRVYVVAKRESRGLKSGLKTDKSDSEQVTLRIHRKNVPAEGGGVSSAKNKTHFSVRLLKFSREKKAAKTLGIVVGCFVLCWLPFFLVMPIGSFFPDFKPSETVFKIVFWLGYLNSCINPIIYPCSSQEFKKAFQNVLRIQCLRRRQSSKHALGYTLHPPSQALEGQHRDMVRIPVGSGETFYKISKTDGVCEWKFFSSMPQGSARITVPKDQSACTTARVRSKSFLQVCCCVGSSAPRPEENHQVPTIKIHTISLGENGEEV

[6] = target: T1, Alpha-2B adrenergic receptor; test: Tested for Binding affinity towards alpha-2B adrenergic receptor
[7] = target: T6, Alpha-2A adrenergic receptor (Homo sapiens) (UniProt P08913); test: Tested for Binding affinity towards Alpha-2A adrenergic receptor at 1 uM
T6 sequence (whole entry): T2 sequence (P08913 whole entry)

[8] = target: T7, Alpha-2C adrenergic receptor (Homo sapiens) (UniProt P18825); test: Tested for Binding affinity towards alpha-2C adrenergic receptor in rat cells at 1 uM; assay type: cell-based
T7 sequence (whole entry): T4 sequence (P18825 whole entry)

| SMILES | Ki [1] [nM] | Ki [2] [nM] | Ratio (Rattus norvegicus) | other results |
| --- | --- | --- | --- | --- |
| C1=C(c2c[nH]cn2)c2ccsc2CC1 | 621 | 254 | 295 |  |
| C1=C(c2c[nH]cn2)c2sccc2CC1 |  |  | 133 |  |
| Cc1sc(C)c2c1CCC=C2c1c[nH]cn1 |  |  | 11600 |  |
| Cc1cccc([C@H](C)c2cnc[nH]2)c1C [DEXMEDETOMIDINE] |  |  |  | Ki [3]: 0.015 nM |
| Cc1sc(C)c2c1CCC=C2c1cnc[nH]1 | 100 | 25 |  | Ki [3]: 8.6 nM; Ki [4]: 26 nM |
| Cc1sc(C)c2c1CCCC2c1c[nH]cn1 (stereo not drawn) | 141 | 68 | 17 | Ki [4]: 205 nM |
| Cc1cccc([C@H](C)c2c[nH]cn2)c1C [DEXMEDETOMIDINE] |  |  | 333 | Ki [5]: 5 nM |
| c1cc(-c2c[nH]cn2)c2ccsc2c1 | 663 | 277 | 132 |  |
| C1=C(c2cnc[nH]2)c2sccc2CC1 |  | 224 |  | Ki [6]: 940 nM |
| c1nc(C2CCCc3sccc32)c[nH]1 (stereo not drawn) | 99 | 27 | 196 | Ki [4]: 172 nM |
| c1nc(C2CCCc3ccsc32)c[nH]1 (stereo not drawn) |  |  | 260 | inhibition [7]: 87%; inhibition [8]: 54% |
